The values that follow come from publication PMC9599461, “Stereoselectivity in the Membrane Transport of Phenylethylamine Derivatives by Human Monoamine Transporters and Organic Cation Transporters 1, 2, and 3” (Biomolecules, 2022).

In one data set the target is T1, OCT2 (Homo sapiens, UniProt O15244).
T1 sequence (O15244 1-555 S270A): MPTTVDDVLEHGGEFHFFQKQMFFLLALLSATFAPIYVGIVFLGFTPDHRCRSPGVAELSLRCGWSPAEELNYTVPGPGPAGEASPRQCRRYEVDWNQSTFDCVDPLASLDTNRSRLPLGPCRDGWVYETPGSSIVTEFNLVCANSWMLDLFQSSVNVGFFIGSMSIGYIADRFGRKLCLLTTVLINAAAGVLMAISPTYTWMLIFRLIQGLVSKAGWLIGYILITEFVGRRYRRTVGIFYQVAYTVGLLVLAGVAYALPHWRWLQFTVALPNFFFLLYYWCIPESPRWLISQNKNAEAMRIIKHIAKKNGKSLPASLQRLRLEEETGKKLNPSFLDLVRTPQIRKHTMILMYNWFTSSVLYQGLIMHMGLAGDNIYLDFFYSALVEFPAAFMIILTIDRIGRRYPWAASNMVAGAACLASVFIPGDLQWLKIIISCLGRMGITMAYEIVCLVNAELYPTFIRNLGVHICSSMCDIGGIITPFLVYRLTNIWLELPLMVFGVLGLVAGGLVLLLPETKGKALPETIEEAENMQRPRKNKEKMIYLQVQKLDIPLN
In words: Stereoselective uptake into OCT2 (wild-type)-overexpressing HEK293 cells. As to conditions: for Vmax ± SEM / Km: HEK293 cells overexpressing human OCT2, racemic substrate, two minutes; for Vmax ± SEM: net uptake; for Clint ± SEM / selectivity ratio at 2 min: OCT2; for Clint ± SEM: quotient of vmax over Km; for selectivity ratio at 2 min: human, ratio between enantiomers; for Km: read-out: Km ± SEM, net uptake minus empty vector control.

A further data set has as its target NET (Homo sapiens, UniProt P23975). In words: Stereoselective uptake into NET-overexpressing HEK293 cells.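 For all read-outs here: intracellular enantiomers quantified in cell lysates by chiral HPLC-MS/MS after a 2 min substrate incubation, with uptake normalized to total cellular protein.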 As to conditions: for Vmax ± SEM / Km: HEK293 cells overexpressing human NET, racemic substrate, two minutes; for Vmax ± SEM: net uptake; for Clint ± SEM / Stereoselectivity Km / Stereoselectivity ClInt / Stereoselectivity Vmax: NET; for Clint ± SEM: quotient of vmax over Km; for Stereoselectivity Km / Stereoselectivity ClInt / Stereoselectivity Vmax: ratio between enantiomers; for Stereoselectivity Km: given as for (R) or for 1 (first-eluting); for Km: read-out: Km ± SEM, net uptake minus empty vector control.

The next data set deals with OCT2 A270S variant. In words: Stereoselective uptake into OCT2 A270S variant-overexpressing HEK293 cells.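 Note: uptake into HEK293 cells stably overexpressing human OCT2 variants, intracellular enantiomers quantified by chiral HPLC-MS/MS and normalized to total protein.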 As to conditions: OCT2 wild-type versus A270S, 100 μM racemic substance, two minutes, given as for WT.
In a further data set the target is DAT (Homo sapiens, UniProt Q01959). In words: Stereoselective uptake into DAT-overexpressing HEK293 cells.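 For all read-outs here: intracellular accumulation measured by chiral HPLC-MS/MS in stably transfected HEK293 cells, normalized to total protein.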 The following applies: for Clint ± SEM: quotient of vmax over Km; for Vmax ± SEM / Km: HEK293 cells overexpressing human DAT, racemic substrate, two minutes; for Vmax ± SEM: net uptake; for Km: read-out: Km ± SEM, net uptake minus empty vector control.
Chain of DAT (Q01959 whole entry): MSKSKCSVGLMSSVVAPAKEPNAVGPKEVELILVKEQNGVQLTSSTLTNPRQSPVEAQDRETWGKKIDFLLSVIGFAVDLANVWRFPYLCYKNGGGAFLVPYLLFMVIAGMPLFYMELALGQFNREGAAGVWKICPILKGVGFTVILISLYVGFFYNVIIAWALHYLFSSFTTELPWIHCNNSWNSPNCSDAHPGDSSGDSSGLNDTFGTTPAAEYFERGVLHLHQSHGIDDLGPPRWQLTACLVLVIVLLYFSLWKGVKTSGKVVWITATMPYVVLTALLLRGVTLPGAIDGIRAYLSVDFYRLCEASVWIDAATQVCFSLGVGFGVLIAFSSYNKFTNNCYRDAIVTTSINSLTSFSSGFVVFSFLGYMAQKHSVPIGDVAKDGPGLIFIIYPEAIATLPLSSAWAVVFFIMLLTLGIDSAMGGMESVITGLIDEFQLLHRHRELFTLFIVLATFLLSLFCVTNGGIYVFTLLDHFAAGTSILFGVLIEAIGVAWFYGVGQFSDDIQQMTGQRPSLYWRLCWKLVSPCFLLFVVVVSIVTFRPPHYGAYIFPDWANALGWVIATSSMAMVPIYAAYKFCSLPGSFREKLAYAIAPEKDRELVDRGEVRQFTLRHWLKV
Another data set has as its target T2, OCT1 (Homo sapiens, UniProt O15245).
T2 sequence (O15245 1-554): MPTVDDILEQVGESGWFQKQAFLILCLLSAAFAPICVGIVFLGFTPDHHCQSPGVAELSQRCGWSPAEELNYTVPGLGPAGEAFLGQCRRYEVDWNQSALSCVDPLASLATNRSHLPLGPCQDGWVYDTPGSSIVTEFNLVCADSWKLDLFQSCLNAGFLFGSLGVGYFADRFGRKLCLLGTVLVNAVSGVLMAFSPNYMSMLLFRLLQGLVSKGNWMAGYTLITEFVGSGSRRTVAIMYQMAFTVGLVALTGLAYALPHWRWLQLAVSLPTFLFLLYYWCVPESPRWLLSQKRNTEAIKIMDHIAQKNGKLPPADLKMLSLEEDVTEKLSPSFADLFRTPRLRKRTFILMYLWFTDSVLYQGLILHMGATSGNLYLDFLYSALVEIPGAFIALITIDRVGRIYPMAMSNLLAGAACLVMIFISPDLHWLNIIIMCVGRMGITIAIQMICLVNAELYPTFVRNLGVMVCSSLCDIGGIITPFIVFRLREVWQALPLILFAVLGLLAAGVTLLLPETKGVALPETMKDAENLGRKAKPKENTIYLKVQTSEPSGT
In words: Stereoselective uptake into OCT1-overexpressing HEK293 cells.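 For all read-outs here: enantiomers quantified inside cells by chiral HPLC-MS/MS, uptake normalized to total protein from bicinchoninic acid assay, substrates applied in HBSS+ buffer.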 The following applies: for Vmax ± SEM / Km: HEK293 cells overexpressing human OCT1, racemic substrate, two minutes; for Vmax ± SEM: net uptake; for Clint ± SEM: quotient of vmax over Km; for Km: read-out: Km ± SEM, net uptake minus empty vector control; for selectivity ratio at 2 min: human.

Another data set has as its target T3, OCT3 (Homo sapiens, UniProt O75751).
T3 sequence (O75751 1-556): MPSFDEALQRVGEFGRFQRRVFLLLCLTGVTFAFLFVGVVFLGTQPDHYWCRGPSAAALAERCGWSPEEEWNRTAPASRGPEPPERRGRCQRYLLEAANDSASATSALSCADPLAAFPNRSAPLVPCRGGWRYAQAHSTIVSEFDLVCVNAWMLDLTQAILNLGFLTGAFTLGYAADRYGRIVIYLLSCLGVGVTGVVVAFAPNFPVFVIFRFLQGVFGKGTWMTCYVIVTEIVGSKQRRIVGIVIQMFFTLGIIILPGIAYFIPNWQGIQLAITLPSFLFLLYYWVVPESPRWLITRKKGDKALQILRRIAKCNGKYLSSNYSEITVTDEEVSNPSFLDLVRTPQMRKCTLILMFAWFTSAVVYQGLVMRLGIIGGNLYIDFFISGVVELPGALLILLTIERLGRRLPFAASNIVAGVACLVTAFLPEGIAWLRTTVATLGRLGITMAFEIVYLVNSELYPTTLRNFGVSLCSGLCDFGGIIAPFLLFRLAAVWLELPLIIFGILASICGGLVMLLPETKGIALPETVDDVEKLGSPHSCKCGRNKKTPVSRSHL
In words: Stereoselective uptake into OCT3-overexpressing HEK293 cells.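 For all read-outs here: intracellular accumulation in HEK293 cells measured by chiral HPLC-MS/MS after a 2 min substrate exposure at 37 °C, uptake normalized to total protein (bicinchoninic acid assay).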 As to conditions: for Vmax ± SEM / Km: HEK293 cells overexpressing human OCT3, racemic substrate, two minutes; for Vmax ± SEM: net uptake; for Clint ± SEM / Stereoselectivity Vmax / Stereoselectivity ClInt / Stereoselectivity Km: OCT3; for Clint ± SEM: quotient of vmax over Km; for Stereoselectivity Vmax / Stereoselectivity ClInt / Stereoselectivity Km: ratio between enantiomers; for Stereoselectivity Vmax: given as for (R) or for 1; for Stereoselectivity Km: given as for (R) or for 1 (first-eluting); for Km: read-out: Km ± SEM, net uptake minus empty vector control.

The target of a further data set is SERT (Homo sapiens, UniProt P31645). In words: Stereoselective uptake into SERT-overexpressing HEK293 cells.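 Note: uptake into HEK293 cells stably expressing human SERT over 2 min, enantiomers measured in cell lysate by chiral HPLC-MS/MS, normalized to total protein.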 The following applies: SERT.
Chain of SERT (P31645 whole entry): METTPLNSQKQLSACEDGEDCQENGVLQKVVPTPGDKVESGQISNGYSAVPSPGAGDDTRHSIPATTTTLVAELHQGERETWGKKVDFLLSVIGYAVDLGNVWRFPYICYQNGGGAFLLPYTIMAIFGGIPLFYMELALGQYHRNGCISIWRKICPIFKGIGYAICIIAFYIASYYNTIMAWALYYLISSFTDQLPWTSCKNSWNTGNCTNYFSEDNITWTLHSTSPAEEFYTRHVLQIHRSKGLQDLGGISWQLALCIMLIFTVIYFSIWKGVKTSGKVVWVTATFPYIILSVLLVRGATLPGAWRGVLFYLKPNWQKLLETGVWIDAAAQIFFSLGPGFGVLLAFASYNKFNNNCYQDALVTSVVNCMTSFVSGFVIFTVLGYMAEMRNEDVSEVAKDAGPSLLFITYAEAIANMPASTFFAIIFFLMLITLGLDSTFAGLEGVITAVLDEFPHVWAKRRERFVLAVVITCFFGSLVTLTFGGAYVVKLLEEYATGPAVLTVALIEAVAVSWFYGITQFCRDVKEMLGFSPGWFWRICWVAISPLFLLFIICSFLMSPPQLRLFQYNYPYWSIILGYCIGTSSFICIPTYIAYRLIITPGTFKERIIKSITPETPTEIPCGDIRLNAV
Where [1] appears, read: ratio between enantiomers, given as for (S) or for 2.

Chain of NET (P23975 whole entry): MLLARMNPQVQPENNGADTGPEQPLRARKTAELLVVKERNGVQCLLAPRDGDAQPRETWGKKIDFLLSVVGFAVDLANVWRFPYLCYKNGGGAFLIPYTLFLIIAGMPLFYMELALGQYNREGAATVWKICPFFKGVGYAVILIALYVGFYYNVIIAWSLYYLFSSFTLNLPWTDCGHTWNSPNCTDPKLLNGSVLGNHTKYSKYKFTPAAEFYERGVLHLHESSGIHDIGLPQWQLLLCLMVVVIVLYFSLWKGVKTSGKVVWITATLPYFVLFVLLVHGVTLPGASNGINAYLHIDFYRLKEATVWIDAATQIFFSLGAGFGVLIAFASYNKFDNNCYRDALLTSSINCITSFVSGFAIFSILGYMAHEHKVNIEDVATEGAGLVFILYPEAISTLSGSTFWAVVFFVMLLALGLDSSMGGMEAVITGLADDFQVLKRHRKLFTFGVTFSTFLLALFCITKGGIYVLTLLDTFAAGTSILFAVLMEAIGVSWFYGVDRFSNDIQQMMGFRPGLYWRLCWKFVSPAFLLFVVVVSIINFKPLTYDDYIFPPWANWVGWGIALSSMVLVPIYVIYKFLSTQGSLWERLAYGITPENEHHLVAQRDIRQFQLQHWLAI
Procedure for NET: All transport experiments were carried out in HEK293 cells stably overexpressing human MATs or OCTs. […] All cells were regularly cultivated in DMEM supplemented with 10% (v/v) FCS, penicillin (100 U/mL) and streptomycin (100 μg/mL)and kept in culture for no longer than 30 passages.
For the uptake experiments, 300,000 cells were plated in poly-D-lysine precoated 24-well plates 48 h ahead of the transport experiment. On the day of experiment, cells were initially washed once with 37 °C pre-warmed HBSS+ (Hanks buffered salt solution supplemented with 10 mM HEPES) and subsequently incubated with the substrates dissolved in pre-warmed HBSS+ for exactly two minutes. Incubation was stopped by adding ice-cold HBSS+ followed by two washing steps. After this, cells were lysed with 80% acetonitrile containing 10 ng/mL milnacipran as internal standard for high-performance liquid chromatography coupled to tandem mass spectrometry (HPLC-MS/MS) analysis. For every experiment, two additional wells per cell line were lysed using RIPA buffer for protein quantification. Total protein was quantified using the bicinchoninic acid assay [42]. This was later used for normalization of the uptake data.
Intracellularly accumulated test substances were quantified by HPLC-MS/MS analysis using a Shimadzu Nexera HPLC system with a SIL-30AC autosampler, a CTO-20AC column oven, a LC-30AD pump, and a CBM-20A controller (Shimadzu, Kyoto, Japan). Stereoselective chromatography was carried out on a [sequence] CBH HPLC column (100 × 3 mm inner dimension with 5 μM particle size; Sigma-Aldrich, Darmstadt, Germany) with a corresponding 10 × 3 mm guard column. Reversed phased chromatography was carried out using an ammonium acetate (NH4Ac) buffered aqueous mobile phase with isopropyl alcohol (IPA) as organic solvent. […] The order of elution of the enantiomers was obtained from available reference literature [43] or by applying enantiopure reference compounds to the chiral HPLC. […] Given the structural similarity of the investigated substances and the fact that separation was performed on the same column with almost identical mobile phases, we assume that this order of elution for our compound set is always the (R)- before the (S)-enantiomer.
Detection was performed with an API 4000 tandem mass spectrometer (AB SCIEX, Darmstadt, Germany) operating in multiple-reaction-monitoring mode. Quantification was performed using the Analyst 1.6.2 software (AB SCIEX, Darmstadt, Germany) and quantified by comparison to standard curves with known concentrations.
All uptake data were normalized to protein content to account for variation in the number of seeded sells. Transporter-mediated net uptake was calculated by subtracting uptake into empty vector-transfected control cells from uptake into transporter-transfected cells. Kinetic parameters were then determined after non-linear regression following the Michaelis–Menten equation (v = vmax × [S]/(Km + [S])) using GraphPad Prism (Version 5.01 for Windows, GraphPad Software, La Jolla, CA, USA). Vmax refers to the maximum transport velocity and Km is defined as the substance concentration required to reach half of vmax. The intrinsic clearance Clint was calculated as the quotient of vmax over Km.

As for `NC[C@H](O)c1ccccc1` [(R)-Bisnorephedrine], the “Vmax ± SEM” value at OCT2 is reported as 847 pmol × mg Protein^−1 × min^−1; at NET, 9.50 pmol × mg Protein^−1 × min^−1; at DAT, 27.2 pmol × mg Protein^−1 × min^−1; at OCT1, 218 pmol × mg Protein^−1 × min^−1; on OCT3 it was 662 pmol × mg Protein^−1 × min^−1. The “Clint ± SEM” value on OCT2 is listed as 22.6 mL × g Protein^−1 × min^−1; on NET, 46.1 mL × g Protein^−1 × min^−1; at DAT (DAT), 6.21 mL × g Protein^−1 × min^−1; on OCT1 (OCT1), 1.17 mL × g Protein^−1 × min^−1; at OCT3, 4.00 mL × g Protein^−1 × min^−1. The “Stereoselectivity Km” value is recorded as 1.01 fold on NET; 1.18 fold on DAT (DAT, ratio between enantiomers, given as for (S) or for 2 (second-eluting)); 1.15 fold at OCT1 (OCT1, ratio between enantiomers, given as for (R) or for 1 (first-eluting)); 1.08 fold at OCT3. In addition, the “Stereoselectivity ClInt” value worked out at 1.24 fold on NET (given as for (S) or for 2); 1.01 fold at DAT (DAT, ratio between enantiomers, printed as for (R) or for 1 (also 1.00-fold for (R/S))); 1.03 fold on OCT1 (OCT1, ratio between enantiomers, given as for (R) or for 1 (also 1.00-fold for 1/2)); 1.04 fold at OCT3 (given as for (R) or for 1 (also 1.00-fold for 1/2)). Moreover, the “Stereoselectivity Vmax” value is reported as 1.23 fold on NET (given as for (S) or for 2); 1.17 fold on DAT (DAT, ratio between enantiomers, given as for (S) or for 2); 1.19 fold on OCT1 (OCT1, ratio between enantiomers, given as for (R) or for 1); 1.13 fold at OCT3. Besides, the Km (in general, the substrate concentration at which the rate is half of its maximum) at NET came to 0.206 µM; on DAT it was 4.38 µM; at OCT1, 187 µM; at OCT3, 165 µM. Moreover, in the data set with OCT2 A270S variant, the Transporter selectivity was determined as 1.50 fold. Also, at SERT (result in words), the Saturable net uptake entry is reported as “No saturable net uptake”.

For `COc1cc(C(O)CN)ccc1O` (single isomer, unassigned) [Normetanephrine-2, Normetanephrine], the “Clint ± SEM” value is on record as 5.92 mL × g Protein^−1 × min^−1 on OCT2; 3.47 mL × g Protein^−1 × min^−1 on NET; 2.65 mL × g Protein^−1 × min^−1 at OCT1 (OCT1); 21.6 mL × g Protein^−1 × min^−1 on OCT3; 4.05 mL × g Protein^−1 × min^−1 on SERT (quotient of vmax over Km). Also, the selectivity ratio at 2 min is 1.56 at OCT2 (Stereoselectivity ClInt, given as for (R) or for 1); 1.32 on OCT2 (Stereoselectivity Km, given as for (R) or for 1 (first-eluting)); 2.06 on OCT2 (Stereoselectivity Vmax, given as for (S) or for 2); 1.08 at OCT1 (Stereoselectivity ClInt, OCT1, ratio between enantiomers, given as for (S) or for 2); 1.59 at OCT1 (Stereoselectivity Km, OCT1, ratio between enantiomers, given as for (R) or for 1 (first-eluting)); 1.47 on OCT1 (Stereoselectivity Vmax, OCT1, ratio between enantiomers, given as for (R) or for 1). Further, the results for the “Stereoselectivity Vmax” value on NET (given as for (R) or for 1), at OCT3 and on SERT (setting [1]) were 1.06 fold, 1.09 fold and 1.67 fold, respectively. For the same compound, the “Stereoselectivity Km” value on NET stood at 1.35 fold; on OCT3, 1.22 fold; on SERT (ratio between enantiomers, given as for (R) or for 1 (first-eluting)), 1.08 fold. Moreover, the “Stereoselectivity ClInt” value on NET (given as for (S) or for 2) is recorded as 1.28 fold; at OCT3 (given as for (S) or for 2), 1.12 fold; at SERT (setting [1]) it was 1.28 fold. This compound also registered a Transporter selectivity in the data set on OCT2 A270S variant (listed as (S)-Normetanephrine) of 1.08 fold. In addition, the Saturable net uptake result on DAT (DAT, result in words) was “No saturable net uptake”.

With (R)-Epinephrine, the “Vmax ± SEM” value is recorded as 7277 ± 483 pmol × mg Protein^−1 × min^−1 at OCT2, 1027 ± 37 pmol × mg Protein^−1 × min^−1 at NET, 2419 ± 189 pmol × mg Protein^−1 × min^−1 at OCT1 and 9742 ± 698 pmol × mg Protein^−1 × min^−1 on OCT3. In addition, the “Clint ± SEM” value at OCT2 is 14.2 ± 4.0 mL × g Protein^−1 × min^−1; at NET, 91.7 ± 21.3 mL × g Protein^−1 × min^−1; at DAT (DAT), 64.7 ± 26.7 mL × g Protein^−1 × min^−1; on OCT1 (OCT1) it was 4.06 ± 1.37 mL × g Protein^−1 × min^−1; at OCT3 it was 20.9 ± 6.7 mL × g Protein^−1 × min^−1. The Km on OCT2 came to 513 ± 110 µM; at NET, 11.2 ± 2.2 µM; on DAT, 34 ± 11.6 µM; on OCT1, 596 ± 155 µM; on OCT3, 466 ± 116 µM.

`CNC[C@@H](O)c1ccc(O)c(O)c1` [(S)-Epinephrine]: the “Vmax ± SEM” value on OCT2 is 3993 ± 360 pmol × mg Protein^−1 × min^−1; at NET it was 557 ± 22 pmol × mg Protein^−1 × min^−1; on DAT, 1226 ± 90 pmol × mg Protein^−1 × min^−1; at OCT1 it was 2514 ± 266 pmol × mg Protein^−1 × min^−1; on OCT3 it was 5336 ± 502 pmol × mg Protein^−1 × min^−1. Also, the figures for the “Clint ± SEM” value at OCT2, at DAT (DAT) and on OCT3 were 6.83 ± 2.57 mL × g Protein^−1 × min^−1, 37.9 ± 14.8 mL × g Protein^−1 × min^−1 and 11.7 ± 4.9 mL × g Protein^−1 × min^−1, respectively. The Km on OCT2 is 585 ± 167 µM; at NET it was 8.52 ± 1.91 µM; at OCT1, 671 ± 230 µM; on OCT3 it was 455 ± 149 µM.
